The record followed here is patent US7297353B2, “Use of anemonin for treating aseptic inflammations” (priority 2000, dated 2007).

Molecules are shown by their SMILES.

Data set [1] has as its system dimethylbenene-induced ear swelling. The data set can be described thus: Acute ear edema of mice induced by dimethylbenene. It counts as in vivo. The note with it: positive control applied on ear; two hours after dimethylbenene. The protocol: The mice were randomly divided into 5 groups. Thirty minutes and sixty minutes after applying dimethylbenene (50 μl) to the anterior and posterior surfaces of the right ear, 25% ethanol (50 μl), the linimene solutions of anemonin (0.05, 0.5, 5 mg/ml, 50 μl) and FAA (a positive control) were applied on the same ears of mice respectively. The left ear was considered as control. Two hours after dimethylbenene application, mice were killed and both ears were removed. Circular sections were taken, using a 9 mm-diameter borer, and weighed. The increase in weight caused by the irritant was measured by subtracting the weight of the untreated left ear section from that of the treated right ear section.

Data set [2] has as its system carrageenan-induced paw edema. The data set can be described thus: Acute hind paw edema of rats induced by carrageenan. Type of data set: in vivo. The following applies: for Paw edema: FAA group. As for the experimental part: The animals were injected subcutaneously with carrageenan (10 μl of 1% solution in saline) into the right paw. Anti-inflammatory properties of external anemonin were studied by applying with various liniment solution of anemonin (0.125, 0.5, 2 mg/ml, 0.5 ml) for 2 h immediately after administration of carrageenan. The rats of control group were treated with the same volume of solvent (25% ethanol). The paw volumes of rats were measured at 0, 2 h, 3 h, 4 h, 5 h, 6 h after injection of carrageenan. The paw edema was represented by subtracting the volume of the untreated same paw from that of the treated paw.

For data set [3], the system named is pain induced by hot plate. The data set can be described thus: Analgesic test with hot plate. It counts as in vivo, mice. The note with it: 25 mg/kg intraperitoneal. The protocol:
This experiment included 4 groups of female mice, totaling 64 and each weighed 18-22 g, selected for normal pain reaction with 55° C. hot plate: high concentration group, low concentration group, dolantin group and control group. The route of administration and dosage are the same as described in the test with formalin. Dolantin was intraperitoneal injected and other groups received test medication on left and right hind feet and abdomen. 30, 60 and 90 minutes after the administration, the mice were put on a 55° C. hot plate and the latent time of each mouse for pain reaction was determined.

In a further data set the test system is pain induced by formalin. The data set can be described thus: Analgesic test with formalin. Type of data set: in vivo, mice. The following applies: 25 mg/kg intraperitoneal. As for the experimental part: Dolantin was intraperitoneal injected and other groups received test medication on left and right hind feet. 15 minutes after administration, 0.03 ml of 2.5% formalin was given to each mouse by subcutaneous injection on right hind foot and then the test medication was applied again. Then, the number of times of each mouse's licking its right hind foot in 15 minutes was counted.

A further data set has as its system skin. The data set can be described thus: Skin allergic test. The following applies: guinea pigs.
The test system of data set [4] is swelling of rat's hind foot. The data set can be described thus: Anti-swelling test on rat's hind foot (carrageenan). It counts as in vivo, rats. The note with it: 0.025% ointment. The protocol: This experiment included 4 groups of rats totaling 40 and each weighed 200-250 g: high concentration group, low concentration group (12.5 mg/25 ml, 6.25 mg/25 ml respectively), fluocinolone acetonide group, control group (the same volume of 25% ethanol). Fluocinolone acetonide was given using a 0.025% ointment, and other groups received corresponding medicament on the left and right hind feet prior to subcutaneous injection of 0.1 ml of 1% carrageenan on the metatarsus of each rat's right hind foot. Immediately after the administration of carrageenan, corresponding medicament was applied on the right hind foot. The metatarsal perimeters of right and left hind foot of each rat were measured 2, 3, 4, and 5 hours after the final administration. The difference between the metatarsal perimeters of the two feet of each rat is taken as a measure of swelling. Corresponding medicament was applied again on rat's right hind foot after each measurement.

`CC(=O)OCC(=O)[C@@]12OC(C)(C)O[C@@H]1C[C@H]1[C@@H]3C[C@H](F)C4=CC(=O)C=C[C@]4(C)[C@@]3(F)[C@@H](O)C[C@@]12C` [FAA, Fluocinoloni Acetonidi Acetas, reference compound]: in data set [1], the “Ear swellin” value was determined as 10 ± 1.8 mg. In addition, the “Paw edema” value in data set [2] (2 h) amounted to 0.13 ± 0.05 mL; in data set [2] (3 h), 0.09 ± 0.07 mL; in data set [2] (4 h), 0.11 ± 0.08 mL; in data set [2] (5 h), 0.09 ± 0.07 mL; in data set [2] (6 h), 0.09 ± 0.11 mL. Moreover, in data set [2] (steroidal anti-inflammatory drug, positive control), the edema formation entry was “significantly inhibited”.
Consider `CCOC(=O)C1(c2ccccc2)CCN(C)CC1` [Dolantin], for which the “Increase of pain threshold (%)” value is listed as 66% in data set [3] (30 min after administration), 80% in data set [3] (60 min after administration) and 94% in data set [3] (90 min after administration). Besides, the figures for the “Latent time for pain reaction” value in data set [3] (30 min after administration), in data set [3] (60 min after administration) and in data set [3] (90 min after administration) were 49.86 ± 5.23 s, 54.29 ± 9.27 s and 58.31 ± 11.23 s, respectively. Moreover, the “Rate of inhibition(%)” value in the data set with pain induced by formalin amounted to 100%. The “Times of licking hind feet” value with pain induced by formalin (15 minutes) worked out at 0.00 ± 0.00.
Turning to `O=[N+]([O-])c1ccc(Cl)c([N+](=O)[O-])c1` [positive control, 2,4-dinitrochlorobenzene], in the data set with skin, the allergenic intensity entry is on record as “extreme” and the allergenic rate amounted to 100%.
As for `CC1(C)O[C@@H]2C[C@H]3[C@@H]4C[C@H](F)C5=CC(=O)C=C[C@]5(C)[C@@]4(F)[C@@H](O)C[C@]3(C)[C@]2(C(=O)CO)O1` [Fluocinolone acetonide], the “Degree of tumefaction (cm)” value in data set [4] (2 hours) is reported as 0.91 ± 0.20 cm; in data set [4] (3 hours), 0.92 ± 0.13 cm; in data set [4] (4 hours) it was 0.90 ± 0.18 cm; in data set [4] (5 hours), 0.92 cm.
